From US6613772B1, “Substituted 2-aryl-4-amino-chinazolines, method for the production and use thereof as medicaments” (Aventis Pharma Deutschland GmbH, priority 1997, dated 2003)

Row | SMILES | melting point
1 | COc1cc2nc(-c3ccc(Cl)cc3)nc(N3CCN(Cc4ccccc4)CC3)c2cc1OC.Cl.Cl | 225 °C
2 | COc1cc2c(NCCO)nc(-c3ccc(Cl)cc3)nc2c(OC)c1OC.Cl | 202 °C
3 | COc1ccccc1N1CCN(c2nc(-c3ccc(Cl)cc3)nc3c(OC)c(OC)c(OC)cc23)CC1 [Example 10, 2-(4-Chlorophenyl)-4-(4-(2-methoxyphenyl)piperazino)-6,7,8-trimethoxyquinazoline] | 157 °C
4 | COc1cc2nc(-c3ccc(Cl)cc3)nc(NC3CC(C)(C)NC(C)(C)C3)c2cc1OC [Example 26, 2-(4-Chlorophenyl)-4-((2,2,6,6-tetramethylpiperidin-4-yl)amino)-6,7-dimethoxyquinazoline] | 231 °C
5 | COc1cc2nc(-c3ccc(Cl)cc3)nc(N3CCN(CC(=O)N4CCOCC4)CC3)c2cc1OC [Example 30, 2-(4-Chlorophenyl)-4-(4-(morpholinocarbonylmethyl)piperazino)-6,7-dimethoxyquinazoline] | 198 °C
6 | COc1cc2nc(-c3ccc(Cl)cc3)nc(N(C)CCO)c2cc1OC [Example 41, 2-(4-Chlorophenyl)-4-(N-(2-hydroxyethyl)-N-methylamino)-6,7-dimethoxyquinazoline] | 129 °C
7 | COc1cc2nc(-c3ccc(C(F)(F)F)cc3)nc(N3CCN(CCO)CC3)c2cc1OC [Example 43, 2-(4-Trifluoromethylphenyl)-4-(4-(2-hydroxyethyl)piperazino)-6,7-dimethoxyquinazoline] | 176 °C
8 | COc1cc2nc(-c3ccc(C(F)(F)F)cc3)nc(N3CCN(C)CC3)c2cc1OC [Example 45, 2-(4-Trifluoromethylphenyl)-4-(4-methylpiperazino)-6,7-dimethoxyquinazoline] | 139 °C
9 | COc1cc2nc(-c3ccc(Cl)cc3)nc(N3CCOCC3)c2cc1OC [Example 48, 2-(4-Chlorophenyl)-4-morpholino-6,7-dimethoxyquinazoline] | 178 °C
10 | COc1cc2nc(-c3ccc(C(F)(F)F)cc3)nc(N3CCOCC3)c2cc1OC [Example 50, 2-(4-Trifluoromethylphenyl)-4-morpholino-6,7-dimethoxyquinazoline] | 207 °C
11 | COc1cc2c(N3CCOCC3)nc(-c3ccc(Cl)cc3)nc2c(OC)c1OC [Example 55, 2-(4-Chlorophenyl)-4-morpholino-6,7,8-trimethoxyquinazoline] | 153 °C
12 | COc1cc2c(N3CCNCC3)nc(-c3ccc(Cl)cc3)nc2c(OC)c1OC [Example 56, 2-(4-Chlorophenyl)-4-piperazino-6,7,8-trimethoxyquinazoline] | 156 °C
13 | COc1cc2c(NCCO)nc(-c3ccc(Cl)cc3)nc2c(OC)c1OC [Example 57, 2-(4-Chlorophenyl)-4-(2-hydroxyethylamino)-6,7,8-trimethoxyquinazoline] | 202 °C
14 | COCCNc1nc(-c2ccc(Cl)cc2)nc2c(OC)c(OC)c(OC)cc12 [Example 58, 2-(4-Chlorophenyl)-4-(2-methoxyethylamino)-6,7,8-trimethoxyquinazoline] | 165 °C
15 | COc1cc2c(NCCCn3ccnc3)nc(-c3ccc(Cl)cc3)nc2c(OC)c1OC [Example 59, 2-(4-Chlorophenyl)-4-(3-(1-imidazolyl)propylamino)-6,7,8-trimethoxyquinazoline] | 245 °C
16 | COc1cc2c(N3CCN(C)CC3)nc(-c3cc(C(F)(F)F)cc(C(F)(F)F)c3)nc2c(OC)c1OC [Example 62, 2-(3,5-Bistrifluoromethylphenyl)-4-(4-methylpiperazino)-6,7,8-trimethoxyquinazoline] | 176 °C
17 | COc1cc2c(NCCN(C(C)C)C(C)C)nc(-c3cc(C(F)(F)F)cc(C(F)(F)F)c3)nc2c(OC)c1OC [Example 63, 2-(3,5-Bistrifluoromethylphenyl)-4-(2-diisopropylaminoethylamino)-6,7,8-trimethoxyquinazoline] | 128 °C
18 | COc1cc2c(N3CCOCC3)nc(-c3cc(C(F)(F)F)cc(C(F)(F)F)c3)nc2c(OC)c1OC [Example 64, 2-(3,5-Bistrifluoromethylphenyl)-4-morpholino-6,7,8-trimethoxyquinazoline] | 170 °C

Other lines, results leading:

Row | melting point | SMILES
19 | 246 °C | COc1cc2nc(-c3ccc(Cl)cc3)nc(NCCN(C(C)C)C(C)C)c2cc1OC.Cl.Cl
20 | 278 °C | COc1cccc(CNc2nc(-c3ccc(C)cc3)nc3cc(OC)c(OC)cc23)c1.Cl
21 | 256 °C | COc1cccc(CCNc2nc(-c3ccc(C)cc3)nc3cc(OC)c(OC)cc23)c1.Cl
22 | 242 °C | COc1cc2nc(-c3ccc(Cl)cc3)nc(NCCCn3ccnc3)c2cc1OC [Example 21, 2-(4-Chlorophenyl)-4-(3-(1-imidazolyl)propylamino)-6,7-dimethoxyquinazoline]
23 | 252 °C | COc1cc2nc(-c3ccc(Cl)cc3)nc(NC3CCN(Cc4ccccc4)CC3)c2cc1OC [Example 22, 2-(4-Chlorophenyl)-4-((1-benzylpiperidin-4-yl)amino)-6,7-dimethoxyquinazoline]
24 | 210 °C | COc1cc2nc(-c3ccc(Cl)cc3)nc(NCCCN3CCCC3=O)c2cc1OC [Example 27, 2-(4-Chlorophenyl)-4-(3-(2-oxopyrrolidino)propylamino)-6,7-dimethoxyquinazoline]
25 | 270 °C (dec.) | COc1cc2nc(-c3ccc(Cl)cc3)nc(NCC(=O)O)c2cc1OC [Example 34, N-(2-(4-Chlorophenyl)-6,7-dimethoxyquinazolin-4-yl)aminoacetic Acid]
26 | 81 °C | COc1cc2nc(-c3ccc(C)cc3)nc(NCCN(C(C)C)C(C)C)c2cc1OC [Example 40, 2-(4-Methylphenyl)-4-(2-diisopropylaminoethylamino)-6,7-dimethoxyquinazoline]
27 | 216 °C | COc1cc2nc(-c3ccc(Cl)cc3)nc(NCCc3ccc(Oc4ccccc4)cc3)c2cc1OC [Example 46, 2-(4-Chlorophenyl)-4-(2-(4-phenoxyphenyl)ethylamino)-6,7-dimethoxyquinazoline]
28 | 196 °C | COC(=O)CNc1nc(-c2ccc(Cl)cc2)nc2cc(OC)c(OC)cc12 [Example 47, 2-(4-Chlorophenyl)-4-((methoxycarbonylmethyl)amino)-6,7-dimethoxyquinazoline]
29 | 200 °C | COc1cc2nc(-c3ccc(C)cc3)nc(N3CCOCC3)c2cc1OC [Example 49, 2-(4-Methylphenyl)-4-morpholino-6,7-dimethoxyquinazoline]
30 | 208 °C | COc1cc2nc(-c3ccc(C)cc3)nc(NCc3ccncc3)c2cc1OC [Example 51, 2-(4-Methylphenyl)-4-((4-pyridylmethyl)amino)-6,7-dimethoxyquinazoline]
31 | 196 °C | COc1cc2nc(-c3ccc(C)cc3)nc(NCc3ccccn3)c2cc1OC [Example 52, 2-(4-Methylphenyl)-4-((2-pyridylmethyl)amino)-6,7-dimethoxyquinazoline]
32 | 204 °C | COc1cc2nc(-c3ccc(C)cc3)nc(NCCc3ccccn3)c2cc1OC [Example 53, 2-(4-Methylphenyl)-4-((2-(2-pyridyl)ethyl)amino)-6,7-dimethoxyquinazoline]
33 | 262 °C | COc1cc2c(NCc3cccnc3)nc(-c3ccc(Cl)cc3)nc2c(OC)c1OC [Example 54, 2-(4-Chlorophenyl)-4-((3-pyridylmethyl)amino)-6,7,8-trimethoxyquinazoline]
